Data set [1] concerns Advanced solid tumors or NHL. The settings on record: cited from earlier work; for DLTs: G3, at 80 mg, 8 patients.
Data set [2] deals with Relapsed/refractory lymphoma. Particulars: cited from earlier work.
The test system of a further data set is K562 cells. Nature of the data set: Cell cycle perturbation of K562 cells (DNA content, CD24, annexin V/PI). The format is cell-based, human. Particulars: for cells in G1 phase / G1 arrest / G2 arrest: 36 hours of treatment; for cells in G1 phase / G1 arrest: CVT-313 2 μM (p<0.05), lovastatin 12 μM (p<0.01), FIG. 14G; for G2 arrest: one-way ANOVA p<0.01. The method, then: CD24 surface protein was quantified using monoclonal human antibodies. Cells were spun down at 300 g for 3 minutes and washed twice with 1 mL of Cell Staining Buffer. The cell pellet was then resuspended in 50 μl of Cell Staining Buffer containing 0.2 μg of either CD24-APC or CD24-BV421. The tube was rotated at 4° C. in the dark for 30 minutes. After, cells were washed twice (as before) and finally resuspended in 200 μl of Cell Staining Buffer. Cells were excited with 450/45 and 660/20 lasers (wavelength/filter bandwidth, both in nm). For concomitant analysis of DNA content, we used CD24-APC. Cells were incubated with 10 μg/ml Hoechst 33342 in 5 mL of growth medium for 30 minutes prior to the staining protocol. For simultaneous assessment of apoptosis, cells were stained with CD24-BV421. After the final wash, instead of resuspending in 200 μl of Cell Staining Buffer, cells were washed twice with Annexin V Staining Buffer. Cells were then incubated in 50 μl Annexin V Staining Buffer containing 0.2 μg Annexin V-FITC and 100 μg/ml propidium iodide (PI). The reaction was incubated for 15 minutes at room temperature in the dark. Afterward, we added 150 μl of Annexin V Staining Buffer and proceeded to flow cytometry. All samples were measured on a Beckman-Coulter CytoFLEX S flow cytometer. Cells were excited with 450/45, 525/40, and 610/20 lasers. We collected 10,000 events per sample. The resulting data were processed with FlowJo Software for Mac Version 10.
We perturbed the cell cycle with lovastatin and nocodazole, two drugs classically used to synchronize cells in culture (Jackman and O'Connor, 2001), as well as the cyclin-dependent kinase inhibitors CVT-313 (Brooks et al., 1997) and RO-3306 (Vassilev et al., 2006). All drugs were dissolved in DMSO except nocodazole, which was dissolved in ethanol. […] Media was refreshed every 48 hours. After 36 hours of treatment, we stained for CD24 levels and nuclear DNA content. We gated for live, single cells using the forward scatter (FSC) and side scatter channels (SSC). Univariate cell cycle analysis was performed with FlowJo. We confirmed that all drugs perturbed cell cycle by altering the proportions of cells in either G1 or G2/M phase (FIG. 14G). […] Cultures remained under drug treatment until five days had elapsed, at which point we measured CD24 levels and stained for apoptosis (FIG. 14H). As before, we set gates to exclude debris to quantitate annexin V and PI, and measured CD24 in live cells gated on FSC and SSC. The G2 inhibitors, in particular, had very few cells in the FSC/SSC gate (typically below 5%).
For the analysis of annexin V levels in either JQ1- or DMSO-treated CD24^high and CD24^low cells, we used a three-way ANOVA with treatment, cell state, and day as independent variables. […] Multiple hypothesis correction was performed using Tukey's honestly significant difference. For the cell cycle inhibitor experiment, data were analyzed using a one-way ANOVA with Dunnett's post hoc test using either DMSO or EtOH (for RO-3306) as controls.

Data set [3] has as its system Relapsed/refractory lymphoma or multiple myeloma. The settings on record: cited from earlier work.
The subject of another data set is Acute leukemia, MDS. Particulars: cited from earlier work; for DLTs: G3.
Another data set deals with NMC. Particulars: cited from earlier work; for toxicities of interest: 4 patients (case series).
Data set [4] relates to Relapsed/refractory leukemia. The settings on record: cited from earlier work.
The subject of the next data set is NMC, CRPC, NSCLC. Particulars: cited from earlier work.
The test system of another data set is BRD4. The data set is described as follows: BRD4 CRISPRi of K562 cells. The format is cell-based, human. The source says:
For CRISPRi, we first made lentivirus expressing dCas9-KRAB (Fulco et al., 2016; Xie et al., 2017) from Addgene plasmid #89567, a gift from Gary Hon, packaged in HEK293T cells along with pMD2.G (Addgene plasmid #12259) and psPAX2 (Addgene plasmid #12260), both gifts from Didier Trono. We cloned a BRD4 guide RNA, selected from the Dolcetto collection (Sanson et al., 2018), into the sgOpti plasmid (Addgene plasmid #85681, a gift from Eric Lander & David Sabatini) using Golden Gate assembly with Esp3I. We used an in-house pipeline to design a non-targeting gRNA sequence, which was cloned into CROP-seq-opti (Lalli et al., 2019). Plasmids were transfected into HEK293T cells using Lipofectamine 2000. Media was collected after 24 and 48 hours, and subsequently concentrated using Lenti-X Concentrator. Viral titers were functionally assed on HEK293T cells using the appropriate antibiotic (blasticidin or puromycin).
Next, we generated a polyclonal pool of dCas9-KRAB-expressing K562 cells. We seeded each well of a 6-well plate with 200,000 cells each containing 2 mL of growth media supplemented with 4 μg/ml polybrene and 1,000,000 infectious lentiviral particles for an estimated multiplicity of infection (MOI) of 5. Plates were centrifuged at 2,000 g for 30 minutes and returned to the incubator. After 48 hours, cells were split to mid-log phase concentration (˜400,000 cells/nil) and selected on blasticidin (10 μg/ml) for 48 hours. We made frozen stocks from these cells.
For the knockdown experiments, cells were thawed and allowed to recover for 4 days. We confirmed that the proportions of CD24^high/CD24^low was approximately equal at this point. We then seeded 200,000 cells into each well of a 6-well plate. Three wells received the BRD4 gRNA lentivirus, while the other three received the non-targeting gRNA lentivirus, at MOI 2.5. We followed the same transduction protocol described above. After 48 hours of incubation, puromycin was added to the medium at a final concentration of 2 μg/ml. After a further 48 hours, cells were passaged 1:1 into 10 cm dishes containing 10 mL of growth medium. […]

The mark [5] stands for this setting: nocodazole 40 ng/μl, RO-3306 4.5 μM.

The text below walks through data of patent US11938138B2, “Methods for improved treatment of cancer” (Washington University, priority 2020, dated 2024).

Read-outs that look alike come from different tables or passages of the source.

As to `CNC(=O)N1N=C(c2ccc(N3CCN(C)CC3)cc2)c2cc(OC)c(OC)cc2C[C@@H]1C` [BAY1238097], the “Development (as DLTs occurred at subtherapeutic doses of drug)” value in [1] (5-40 mg 2×/week in 21 day cycle) is listed as “halted as”. The “Recurrent headaches, patients” value in data set [1] (10 and 40 mg cohorts) is reported as “in 50%”. The DLTs result in data set [1] (headache) was “headache,”; in [1] (low back pain), “G3 low back”; in [1] (vomiting), “G3 vomiting,”.

For the compound `Cc1noc2c1-c1ccccc1C(c1ccc(Cl)cc1)=N[C@H]2CC(N)=O` [CPI-0610], the primary toxicity result in data set [2] (dose dependent, reversible) is given as “thrombocytopenia;”. In addition, in data set [2] (number of patients of 44), the “Responses observed: CR” value is 2, the “Responses observed: PR” value was 1, the “Responses observed: SD” value is listed as “PR; 6 SD” and the “Responses observed: with responses not qualifying as PR” value is on record as 5 with. Besides, in data set [2] (of 44 patients), the “patients with G3 diarrhea” value is 1 patient with and the “patients with G4 thrombocytopenia” value is given as 1 patient with.

For `COc1ccc(CNc2nc(N(CCO)CCO)nc3c2ncn3C(C)C)cc1` [CVT-313], the “cells in G1 phase / G1 arrest” value in the data set on K562 cells was “significant increase”.

On to `Cc1sc2c(c1C)C(c1ccc(Cl)cc1)=N[C@@H](CC(=O)Nc1ccc(O)cc1)c1nnc(C)n1-2` [MK-8628/OTX015], for which, in [3] (G3), the DLTs entry is “hyponatremia”. The DLTs result in [3] (G4, neutropenia) is “neutropenia,”. The DLTs result in data set [3] (G4, thrombocytopenia) was “thrombocytopenia, G4”. Moreover, in data set [3] (number of patients of 45), the “Responses observed: OR (DLBCL)” value is 3 OR; the “Responses observed: with improvement of pleural effusion” value is “(DLBCL), 1”; the “Responses observed: with resolution of B symptoms” value is “effusion; 2”; the “Responses observed: with responses not meeting PR criteria” value is given as 2 with. Moreover, the RP2D in data set [3] (q.d.s. × 14/21 days, 45 patients) is on record as 80 mg. Besides, in [3] (toxicity incidence), the anemia entry is recorded as “(91%)”, the diarrhea result is on record as “(47%),”, the dysgeusia entry was “(15%),” and the fatigue result was “(27%),”. Besides, in the data set with Acute leukemia, MDS (diarrhea), the DLTs result is reported as “diarrhea, G3”. Moreover, the DLTs result with Acute leukemia, MDS (fatigue) was “fatigue”. Besides, in the data set on Acute leukemia, MDS (limited compliance), the diarrhea entry is “(34%),” and the rash entry was “rash (20%)”. Also, in the data set with Acute leukemia, MDS (number of patients of 41), the “Responses observed: CR” value is 2 and the “Responses observed: CRi (platelets) × 2 months” value is reported as 1. The RP2D with Acute leukemia, MDS (q.d.s. × 14/21 days, 41 patients) is 80 mg. Besides, the toxicities of interest entry with NMC (G2, dysgeusia) is “dysgeusia,”. Moreover, in the data set with NMC (G2, fatigue), the toxicities of interest result was “G2 fatigue”. For the same compound, the toxicities of interest result with NMC (G2, hyperglycemia) was “hyperglycemia,”. The toxicities of interest entry with NMC (G2, nausea) is listed as “G2 nausea, G2”. For the same compound, the toxicities of interest entry in the data set with NMC (G3) is “thrombocytopenia,”. Besides, in the data set on NMC (number of patients of 4), the “Responses observed: PR” value was 2 and the “Responses observed: SD” value was 1. In data set [4] (number of patients of 36), the “Responses observed: CR” value is 1 CR; 1 CRi; the “Responses observed: CRi (platelets)” value is listed as 1 CR; 1 CRi; the “Responses observed: with disappearance of hypertrophied gums” value was “clearance, 1”. Moreover, the MTD in data set [4] (q.d.s., 36 patients) is on record as 120 mg. In data set [4] (toxicity incidence), the abdominal pain result is “pain (11%),”, the “decreased factor VII” value is on record as “(21%)” and the dysgeusia entry is “(11%),”. The “Responses observed: PR” value in the data set on NMC, CRPC, NSCLC (number of patients of 47) is recorded as 4. For the same compound, the “Responses observed: SD” value in the data set on NMC, CRPC, NSCLC (number of patients of 47, for 4-8 months) is on record as 5. Further, in the data set on NMC, CRPC, NSCLC (toxicity incidence), the G3-4 thrombocytopenia result was “(20%), G3”; the G3 anemia entry is on record as “(9%), G3”; the G3 fatigue result is “fatigue (7%)”.

On to `O=C1NC(=NCc2cccs2)S/C1=C\c1ccc2ncccc2c1` [RO-3306], for which, in the data set with K562 cells (setting [5]), the G2 arrest entry is recorded as “significant G2 arrest”.

As to `CC[C@H](C)C(=O)O[C@H]1C[C@@H](C)C=C2C=C[C@H](C)[C@H](CC[C@@H]3C[C@@H](O)CC(=O)O3)[C@H]21` [lovastatin], the “cells in G1 phase / G1 arrest” value with K562 cells is recorded as “significant decrease”.

Take `COC(=O)Nc1nc2ccc(C(=O)c3cccs3)cc2[nH]1` [nocodazole]: the G2 arrest entry in the data set on K562 cells (setting [5]) is recorded as “significant G2 arrest”. Further, the “surviving cells after five days of treatment” value in the data set on K562 cells (K562, nocodazole 40 ng/μl, RO-3306 4.5 μM) was “very few surviving cells”.

Regarding “BRD4 gRNA: guide RNA GCGGCTGCCGGCGGTGCCCG for knockdown of BRD4 with CRISPRi (dCas9-KRAB) (listed as DNA, chemistry not given here)”, the “sensitization of K562 cells to imatinib” value in the data set on BRD4 (imatinib 1 μM, Tukey's HSD p=0.68 (FIG. 14E-14F)) is “partially phenocopied”. Further, the “proportion of CD24high cells compared to non-targeting (NT) gRNA” value in the data set with BRD4 (nine days after gRNA transduction, Welch's t test p<0.01 (FIG. 6E), not to the same levels as JQ1) is given as “significant decrease”. The “reduction of BRD4 mRNA levels” value in the data set with BRD4 (qRT-PCR (FIG. 14D)) was “less than 50%”.
